The nature of experiment [1]: Inhibition of pepsin from porcine gastric mucosa using Arg-Glu-(EDANS)- Ser-Gln-Asn-Tyr-Pro-Ile-Val-Gln-Lys-(DALBCYL)-Arg fluorogenic substrate preincubated for 1 hr measured after 1 hr at 1 min interval by fluorescence assay. Details: species or system Sus scrofa.
Experiment [2] concerns the target T1, Proprotein convertase subtilisin/kexin type 7 (Homo sapiens) (UniProt Q16549).
T1 sequence (whole entry): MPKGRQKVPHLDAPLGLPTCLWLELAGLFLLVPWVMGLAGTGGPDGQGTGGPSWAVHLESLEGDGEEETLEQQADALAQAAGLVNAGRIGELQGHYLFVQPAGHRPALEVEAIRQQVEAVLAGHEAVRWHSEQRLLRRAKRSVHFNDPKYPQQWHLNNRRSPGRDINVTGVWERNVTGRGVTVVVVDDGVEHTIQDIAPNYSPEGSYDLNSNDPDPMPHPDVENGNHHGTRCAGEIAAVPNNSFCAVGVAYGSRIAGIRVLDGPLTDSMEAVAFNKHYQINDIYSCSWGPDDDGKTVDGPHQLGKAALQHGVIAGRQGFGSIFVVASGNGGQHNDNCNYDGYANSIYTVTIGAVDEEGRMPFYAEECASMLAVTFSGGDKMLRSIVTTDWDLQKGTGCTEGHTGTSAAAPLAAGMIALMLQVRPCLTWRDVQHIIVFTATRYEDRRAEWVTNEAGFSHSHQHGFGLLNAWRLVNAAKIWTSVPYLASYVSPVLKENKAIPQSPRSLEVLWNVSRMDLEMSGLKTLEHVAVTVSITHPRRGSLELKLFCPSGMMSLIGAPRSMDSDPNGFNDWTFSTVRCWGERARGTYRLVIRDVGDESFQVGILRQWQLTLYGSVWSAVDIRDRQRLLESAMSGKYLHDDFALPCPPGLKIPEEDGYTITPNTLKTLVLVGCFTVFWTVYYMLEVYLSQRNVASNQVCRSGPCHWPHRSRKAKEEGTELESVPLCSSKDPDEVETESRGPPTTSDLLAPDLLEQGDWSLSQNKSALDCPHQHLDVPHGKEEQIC
The experiment can be described thus: Inhibition of recombinant type 8 subtilisin using Arg-Glu-(EDANS)- Ser-Gln-Asn-Tyr-Pro-Ile-Val-Gln-Lys-(DALBCYL)-Arg fluorogenic substrate at 1 ug/ml preincubated for 1 hr measured after 1 hr at 1 min interval by fluorescence assay.

Experiment [3] deals with T1, Proprotein convertase subtilisin/kexin type 7 (Homo sapiens). The experiment in a line: Inhibition of recombinant type 8 subtilisin using Arg-Glu-(EDANS)- Ser-Gln-Asn-Tyr-Pro-Ile-Val-Gln-Lys-(DALBCYL)-Arg fluorogenic substrate at 0.1 ug/ml preincubated for 1 hr measured after 1 hr at 1 min interval by fluorescence assay.
Experiment [4] has the same target. The experiment in a line: Inhibition of recombinant type 8 subtilisin using Arg-Glu-(EDANS)- Ser-Gln-Asn-Tyr-Pro-Ile-Val-Gln-Lys-(DALBCYL)-Arg fluorogenic substrate at 0.01 ug/ml preincubated for 1 hr measured after 1 hr at 1 min interval by fluorescence assay.
Experiment [5] shares this target. The experiment can be described thus: Inhibition of recombinant type 8 subtilisin using Arg-Glu-(EDANS)- Ser-Gln-Asn-Tyr-Pro-Ile-Val-Gln-Lys-(DALBCYL)-Arg fluorogenic substrate at 0.001 ug/ml preincubated for 1 hr measured after 1 hr at 1 min interval by fluorescence assay.

In turn, `C=C(CO)[C@@]12O[C@@H]1[C@@]1(C)C(=CC2=O)[C@H](OC(=O)C(C)CC(C)CC(C)CC)CC[C@@H]1C` (stereo partly drawn) [XYLARENONE C] showed an IC50 in experiment [1] of 0.288 µM.

`C=C(CO)[C@@]12O[C@@H]1[C@@]1(C)C(=CC2=O)[C@H](OC(=O)C(O)(CO)CC(C)CC(C)C(C)O)CC[C@@H]1C` (stereo partly drawn) [XYLARENONE E] returned an IC50 in experiment [1] of 127 µM. For the same compound, the inhibition in experiment [2], in experiment [3], in experiment [4] and in experiment [5] was less than 10% each time.

For the compound `C=C(CO)[C@@]12O[C@@H]1[C@@]1(C)C(=CC2=O)[C@H](OC(=O)C(O)(CO)CC(C)CC(C)CC)CC[C@@H]1C` (stereo partly drawn) [XYLARENONE D], the midpoint of inhibition in experiment [1], the IC50, lay at 115 µM. In addition, the inhibition in experiment [2], in experiment [3], in experiment [4] and in experiment [5] was less than 10% throughout.

With `O=c1oc2ccccc2c(O)c1Cc1c(O)c2ccccc2oc1=O` [DICUMAROL], 4.57 µM corresponded to half-maximal inhibition in experiment [1] (IC50).

For the compound `CC(=O)CC(c1ccccc1)c1c(O)c2ccccc2oc1=O` (stereo not drawn) [WARFARIN], half-maximal inhibition in experiment [1] (IC50) was put at 0.00832 µM.

Regarding `C=C(CO)[C@@]12O[C@@H]1[C@@]1(C)C(=CC2=O)[C@H](O)CC[C@@H]1C` [XYLARENONE A], in experiment [1], half-maximal inhibition (IC50) was put at 2.43 µM. Moreover, the inhibition in experiment [2], in experiment [3], in experiment [4] and in experiment [5] was less than 10% throughout.

What is called IC50 is the point on the concentration scale where inhibition reaches its midpoint. Low readings indicate higher potency, high ones lower potency. The inhibition is how much of the control response was suppressed.
